These results are taken from US10509041B2, “Glucose derivative, and cell imaging method and imaging agent using said derivative” (HIROSAKI UNIVERSITY, priority 2014, dated 2019).

Values joined by “and” are separate entries in the source; they are usually repeats but may differ in a detail not shown here. Equal values may be shown once.

The subject of series [1] is neuronal cells of the substantia nigra pars reticulate of the midbrain. The series can be described thus: Fluorescent imaging of acutely isolated normal neuronal cells. Type of series: cell-based, mouse. Conditions: 3 minutes, 8 minutes after start of washout. On the procedure:
The whole amount of the 0.5 mg CLG vial was recovered using 0.73 mL in total of 10% DMSO and dissolved (100 μM) by addition to 14.79 ml of a HEPES solution for image acquisition according to the method described in Non Patent Literature 2. […]
150 mM NaCl, 5 mM KCl, 1 mM MgCl2, 2 mM CaCl2, and 10 mM HEPES (the pH of the solution was adjusted to 7.4 with a 1 M tris(2-amino-2-hydroxymethyl-1,3-propanediol) solution). The concentration of glucose was set to 10 mM. 0.1 mM carbenoxolone (Sigma-Aldrich, #C4790) was added thereto for the purpose of inhibiting the entrance and exit of fluorescently labeled glucose by way of gap junction/hemichannel. This HEPES solution for image acquisition was used for preparing the CLG solution and the mixed solution with the additional fluorescent sugar derivative.
Neuronal cells […] to the method described in the previous reports of the inventors (WO2010/16587 (Patent Literature 2)) and (WO2012/133688 (Patent Literature 4)) and attached to each glass cover slip coated with poly-L-lysine. Then, the glass cover slip was transferred into the HEPES solution for image acquisition in a perfusion chamber loaded on a stage of a fluorescence microscope, followed by observation.
A silicon plate of 1 mm thickness bored to have a streamline-shaped hole (10 mm wide x 35 mm long) was placed via cover glass onto an aluminum heating control platform (Warner Instruments) having a round hole (diameter: 18 mm) for an objective lens at the bottom, and allowed to be in close contact with the cover glass.
The HEPES solution for image acquisition was warmed in advance in an aluminum syringe heater and supplied to the perfusion chamber through hydrostatic pressure. The perfusion rate was adjusted to 1.3±0.2 mL/min using a flow rate adjuster. Immediately before being introduced to the perfusion chamber, the solution was rewarmed via an inline heater so that the actually measured temperature of the perfusate in an observation region in the chamber was adjusted to 32.5±1° C. The CLG/2-TRLG mixed solution was able to be supplied in the same way as above and was switched with the HEPES solution for image acquisition using an electromagnetic valve capable of controlling the opening and closing of the channel. The solution was removed using a vacuum pump capable of controlling suction pressure.
The fluorescence microscope used was NIKON ECLIPS-Ti, and images were acquired with a CCD camera Retiga 2000R.
CLG and 2-TRLG were each detected using the following filter cassette.
Excitation 360/40 nm, Dichroic mirror 400 nm, Emission 460/50 nm.
Excitation 567/15 nm, Dichroic mirror 593 nm, Emission 593 nm Long pass.
The objective lens used in this method was ×20 dry lens (Nikon Plan S Fluor). The images were acquired at 1600×1200 pixels. […]

In series [2] the test system is mouse insulinoma cells (MIN6). The series can be described thus: Influence of excessive D-glucose or L-glucose on increase in fluorescence intensity caused by CDG or CLG in MIN6 cells. Conditions: 100 μM, 37° C. 5 min, MIN6 culture day 13, versus non-excessive glucose control. Type of series: cell-based. On the procedure:
Whether or not increase in fluorescence intensity caused by the administration of the blue fluorescent D-glucose derivative CDG (100 μM) to the mouse insulinoma cells MIN6 at culture day 13 was inhibited by a large excess of D-glucose or L-glucose was examined. The blue fluorescent L-glucose derivative CLG was similarly analyzed as a control. However, the following conditions were changed.
Although the usual KRB solution contains 129 mM NaCl and 5.6 mM D-glucose, the osmotic pressure of a control solution (non-excessive glucose administration group solution) for this experiment was adjusted to 270 mOsm by substituting a portion of NaCl with choline-Cl, in order to equalize charge and osmotic pressure between the control solution and a KRB solution for excessive glucose administration. Also, the KRB solution for excessive glucose administration was allowed to contain NaCl and glucose according to the composition given below. In this respect, choline-Cl was added thereto in order to equalize osmotic pressure between this solution and the control solution (non-excessive glucose administration group solution).
100 mM NaCl and 5.6 mM D-glucose (non-excessive glucose administration group solution)
100 mM NaCl and 50 mM D-glucose (50 mM excessive D-glucose administration group solution)
100 mM NaCl, 50 mM L-glucose, and 5.6 mM D-glucose (50 mM excessive L-glucose administration group solution)
These dedicated KRB solutions were also used as a solution for preparing CDG and CLG solutions in this Example.
CDG and CLG were placed on different plates for the experiment. A CDG solution (or a CLG solution) prepared using each dedicated KRB solution was administered thereto using an 8-channel pipette (37° C., 5 min). Before the administration, replacement with each dedicated KRB solution was carried out in advance, and the autofluorescence of each well was measured with a fluorescence microplate reader. The time from the start of the replacement to immediately before the administration was approximately 28 minutes.
After the completion of the administration, first, the fluorescent solution in each well was temporarily diluted using 200 μL of the dedicated KRB solution and then diluted using 300 μL of the usual KRB solution.
The influence of the presence of 50 mM L-glucose was also studied as a control in evaluating the influence of the presence of a large excess (50 mM) of D-glucose on increase in fluorescence intensity.

For series [3], the system named is mouse insulinoma cells (MIN6). The series can be described thus: Increase in fluorescence intensity (uptake) after administration of fluorescent glucose derivative to MIN6 cells, influence of cytochalasin B (CB) or phloretin (PHT), fluorescence microplate reader. The series is classed as cell-based. Conditions: for effect of PHT on increase in fluorescence intensity (uptake) caused by administration: CDG and CLG on the same dish.

Series [4] can be described thus: Fluorescence spectrum (excitation and fluorescence maxima). Type of series: physicochemical. From the text:
The fluorescence spectra of CDG synthesized in (1) and QDG synthesized in (2) were compared with the fluorescence spectrum of 2-NBDLG (manufactured by Peptide Institute, Inc.).
The numeric values described above the graph denote the fluorescence maximum of CDG and QDG, respectively. It is evident that the fluorescence maximum was largely shifted to shorter wavelength as compared with the fluorescence maximum of 2-NBDLG present around 550 nm.

As for `O=c1ccc2ccc(NC3C(O)OC(CO)[C@@H](O)[C@@H]3O)cc2o1` (stereo partly drawn) [CDG, 2-deoxy-2-(2-oxo-2H-chromen-7-yl)amino-D-glucose], the “uptake into normal neuronal cells” value in series [1] (100 μM CDG+20 μM 2-TRLG mixed solution, 14-day-old mouse) is on record as “taken into the normal neuronal cells”. In series [2], the “effect of 50 mM D-glucose on increase in fluorescence intensity caused by administration” value is given as “significantly suppressed” and the “effect of 50 mM L-glucose on increase in fluorescence intensity caused by administration” value is “not suppressed”. Further, in series [3] (CDG 100 μM, 37° C. 5 minutes, PHT 150 μM, MIN6 culture day 13, average, two independent experiments), the “fluorescence intensity in the presence of PHT relative to the absence of PHT” value is 28.5% and 28.8%. For the same molecule, the “effect of PHT on increase in fluorescence intensity (uptake) caused by administration” value in series [3] (MIN6 culture day 15, 5 minutes) is on record as “significantly inhibited”. For the same molecule, in series [4], the “maximum excitation wavelength (Ex max)” value stood at 366.5 nm and the “maximum fluorescence wavelength (Em max)” value stood at 454.5 nm.
Regarding `O=c1ccc2ccc(NC3C(O)OC(CO)[C@H](O)[C@H]3O)cc2o1` (stereo partly drawn) [CLG, 2-deoxy-2-(2-oxo-2H-chromen-7-yl)amino-L-glucose], the “uptake into normal neuronal cells” value in series [1] (100 μM CLG+20 μM 2-TRLG mixed solution, 21-day-old mouse) is recorded as “not observed”. In series [2], the “effect of 50 mM D-glucose on increase in fluorescence intensity caused by administration” value is reported as “slightly inhibited” and the “effect of 50 mM L-glucose on increase in fluorescence intensity caused by administration” value is “not inhibited”. Also, the “effect of PHT on increase in fluorescence intensity (uptake) caused by administration” value in series [3] (MIN6 culture day 15, 5 minutes) is on record as “significantly inhibited”. Further, in series [3] (same dish, MIN6 culture day 15, 5 minutes), the “increase in fluorescence intensity caused by administration, compared with CDG (D/L stereoselectivity)” value is on record as “significantly smaller”. In addition, in series [4], the “maximum excitation wavelength (Ex max)” value was 366.5 nm and the “maximum fluorescence wavelength (Em max)” value is on record as 454.5 nm.
